Reference: patent US20110110916A1, “METHODS FOR TREATING AND/OR PREVENTING CARDIOMYOPATHIES BY ERK OR JNK INHIBITION” (priority 2008, published 2011)

How the values were obtained:
HeLa cells = test: ERK1/2 phosphorylation in HeLa cells treated with Emd and Lmna siRNAs; type: cell-based, human; details: 45 μM for 24 hours
Method: (§1) Human HeLa cells and mouse C2C12 cells were maintained in a 5% CO2 atmosphere at 37° C. The cells were cultured in Dulbecco's modified Eagle's medium supplemented with 10% calf bovine serum and 0.1% gentamicin.
(§2) One day before transfection, HeLa and C2C12 cells were trypsinized, diluted with fresh medium without antibiotics and transferred to 24-well plates. Transient transfection of siRNAs was carried out using Oligofectamine (Invitrogen) as recommended by the manufacturer. Cells were preincubated in 7.5 μl OPTIMEM 1 medium (Life Technologies) and 2 μl Oligofectamine per well for 5 minutes at room temperature. During the time of this incubation, 40 μl OPTIMEM 1 medium were mixed with 2.5 μl siRNA. The two mixtures were combined and incubated for 20 minutes at room temperature for complex formation. The entire mixture was added to the cells in one well resulting in a final concentration of […] for the siRNAs. […]
(§3) Proteins were separated by SDS-PAGE, transferred to nitrocellulose membranes and blotted with primary antibodies against ERK1/2 (Santa-Cruz), pERK1/2 (Cell Signaling), lamin A/C (Santa-Cruz), emerin (Novocatra), β-actin (Sant-Cruz) and Gapdh (Santa-Cruz). […] Band densities were calculated using Scion Image software (Scion Corporation) and normalized to the appropriate total extract to control for protein loading. […]

[1] = system: hearts from Lmna^H222P/H222P mice; test: Quantitative real-time RT-PCR of mRNAs in hearts of treated mice; type: in vivo, mouse; details: for expression of Colla1, Colla2 and Fn1 / expression of Mlc-2a, NppA and NppB mRNAs: 20 weeks of age, 3 mg/kg/day from 16 to 20 weeks
From the text: Total RNA was extracted using the Rneasy isolation kit (Qiagen) as previously described (96). cDNA was synthesized as previously described (96) using Omniscript Reverse Transcriptase (Qiagen) on total cellular RNA. For each replicate in each experiment, RNA from tissue samples of different animals was used. Primers were designed that correspond to mouse RNA sequences using Primer3 (http://frodo.wi.mit.edu/cgi-biniprimer3/primer3_www.cgi). The real-time RT-PCR reaction contained iQ SYBR green super mix (Bio-Rad), 200 nM of each primer and 0.2 μl of template in a 25 μl reaction volume. Amplification was carried out using appropriate primers and the MyiQ Single-Color Real-Time PCR Detection System (Bio-Rad) with an initial denaturation at 95° C. for 2 min followed by 50 cycles at 95° C. for 30 s and 62° C. for 30 s. Relative levels of mRNA expression were calculated using the CT method (67). Individual expression values were normalized by comparison with Gapdh mRNA.
Real-time reverse transcription-PCR (RT-PCR) was used to quantify tissue RNA levels. Total RNA was extracted from cardiac ventricles of mice using the Rneasy isolation kit (Qiagen) as previously described. cDNA was synthesized using Superscript first strand synthesis system according to the manufacturer's instructions (Invitrogen) on total RNA. For each replicate in each experiment, RNA from tissue samples of different animals was used. Primers were designed correspond to mouse RNA sequences using Primer3 (http://frodo.wi.mit.edu/cgi-bin/primer3/primer3_www.cgi) for Nppa (forward 5′-[…]-3′ [SEQ ID NO: 4], reverse 5′-[…]-3′ [SEQ ID NO: 5]), Nppb (forward 5′-[…]-3′ [SEQ ID NO: 6], reverse 5′-[…]-3′ [SEQ ID NO: 7]), Mlc-2a (forward 5′-[…]-3′ [SEQ ID NO: 8], reverse 5′-[…]-3′ [SEQ ID NO: 9]), Colla1 (forward 5′-[…]-3′ [SEQ ID NO: 10], reverse 5′-[…]-3′ [SEQ ID NO: 11]), Colla2 (forward 5′-[…]-3′ [SEQ ID NO: 12], reverse 5′-[…]-3′ [SEQ ID NO: 13]) and Fn1 (forward 5′-[…]-3′ [SEQ ID NO: 14], reverse 5′-[…]-3′ [SEQ ID NO: 15]). The real-time RT-PCR reaction contained iQ SYBR green super mix (Bio-Rad), 200 nM of each primer, and 0.2 μl of template in a 25 μl reaction volume. Amplification was carried out using the MyiQ Single-Color Real-Time PCR Detection System (Bio-Rad) with an initial denaturation at 95° C. for […] followed by 50 cycles at 95° C. for 30 s and 62° C. for 30 s. Relative levels of mRNA expression were calculated using the ΔΔCT method (2). Individual expression values were normalized by comparison with Gapdh mRNA (forward 5′-[…]-3′ [SEQ ID NO: 16], reverse 5′-[…]-3′ [SEQ ID NO: 17]).

cyclooxygenase-1 = details: reference 137; cited from earlier work
cyclooxygenase-2 = details: reference 137; cited from earlier work
C2C12 cells = test: ERK1/2 phosphorylation in C2C12 cells treated with Emd and Lmna siRNAs (immunoblot, ELISA); type: cell-based, mouse; details: 45 μM for 24 hours
Method: as §1, §2, §3

[2] = pilot study, 24 weeks, treated from 19 weeks

Compound | increase in pERK (immunoblot) (HeLa cells) | expression of Colla1, Colla2 and Fn1 [1] | expression of Mlc-2a, NppA and NppB mRNAs [1] | expression of Elk1, Elk4, Atf2 and Atf4 ([1]; hearts at 16 weeks, treated 8 to 16 weeks) | cardiac expression of Mlc-2a, NppA, Colla1 and Colla2 mRNAs [1, 2] | cardiac expression of NppB mRNA [1, 2] | activity against cyclooxygenase-1 (cyclooxygenase-1) | activity against cyclooxygenase-2 (cyclooxygenase-2) | increase in pERK (immunoblot) (C2C12 cells; C2C12 cells treated with Emd and Lmna siRNAs) | ERK1/2 phosphorylation (ELISA) (C2C12 cells; siRNA-treated C2C12 cells (FIG. 20B))
COc1cccc(-c2cc(=O)c3ccccc3o2)c1N [PD98059, 2-(2-amino-3-methoxyphenyl)-4H-1-benzopyran-4-one] | reduced | significantly lowered | significantly decreased | decreased expression | significantly reduced | significantly reduced | has activity | has activity | reduced | Inhibition of ERK1/2
O=C1c2ccccc2-c2n[nH]c3cccc1c23 [SP600125, anthra[1,9-cd]pyrazol-6(2H)-one] | – | significantly lowered | significantly decreased | – | significantly reduced | – | – | – | – | –
